One test deals with LNCAP AR. Briefly: IncuCyte % confluence cell growth inhibition, LNCAP AR. Type of test: cell-based. Conditions: read-out: IC50 values (μM), LNCAP AR. The protocol: (§1) Images were then analyzed to discern the % confluence of cells in each well. IC50 values were calculated from dose response curves of the % cell growth inhibition relative to DMSO control at the same time point per each cell line.

For another test, the system named is LAPC4. Briefly: IncuCyte % confluence cell growth inhibition, LAPC4. Conditions: Homo sapiens, LAPC4, read-out: IC50 values (μM), LAPC4. Type of test: cell-based. The protocol: as §1
Another test relates to 22Rv1. Kind of test: IncuCyte % confluence cell growth inhibition, 22Rv1. In kind it is cell-based. Conditions: Homo sapiens, 22Rv1, read-out: IC50 values (μM), 22Rv1. The protocol:
as §1

Another test concerns LNCaP ARin vivo. Kind of test: IncuCyte % confluence cell growth inhibition, LNCaP ARin vivo. Particulars: Homo sapiens, read-out: IC50 values (μM), LNCaP ARin vivo. In kind it is cell-based. The protocol: as §1
The next test has as its system PC3. Briefly: IncuCyte % confluence cell growth inhibition, PC3. In kind it is cell-based. Conditions: Homo sapiens, PC-3, read-out: IC50 values (μM), PC3. The protocol:
as §1

Another test has as its target T1, Aldosterone Receptor (UniProt P22199).
T1 sequence (P22199 1-981): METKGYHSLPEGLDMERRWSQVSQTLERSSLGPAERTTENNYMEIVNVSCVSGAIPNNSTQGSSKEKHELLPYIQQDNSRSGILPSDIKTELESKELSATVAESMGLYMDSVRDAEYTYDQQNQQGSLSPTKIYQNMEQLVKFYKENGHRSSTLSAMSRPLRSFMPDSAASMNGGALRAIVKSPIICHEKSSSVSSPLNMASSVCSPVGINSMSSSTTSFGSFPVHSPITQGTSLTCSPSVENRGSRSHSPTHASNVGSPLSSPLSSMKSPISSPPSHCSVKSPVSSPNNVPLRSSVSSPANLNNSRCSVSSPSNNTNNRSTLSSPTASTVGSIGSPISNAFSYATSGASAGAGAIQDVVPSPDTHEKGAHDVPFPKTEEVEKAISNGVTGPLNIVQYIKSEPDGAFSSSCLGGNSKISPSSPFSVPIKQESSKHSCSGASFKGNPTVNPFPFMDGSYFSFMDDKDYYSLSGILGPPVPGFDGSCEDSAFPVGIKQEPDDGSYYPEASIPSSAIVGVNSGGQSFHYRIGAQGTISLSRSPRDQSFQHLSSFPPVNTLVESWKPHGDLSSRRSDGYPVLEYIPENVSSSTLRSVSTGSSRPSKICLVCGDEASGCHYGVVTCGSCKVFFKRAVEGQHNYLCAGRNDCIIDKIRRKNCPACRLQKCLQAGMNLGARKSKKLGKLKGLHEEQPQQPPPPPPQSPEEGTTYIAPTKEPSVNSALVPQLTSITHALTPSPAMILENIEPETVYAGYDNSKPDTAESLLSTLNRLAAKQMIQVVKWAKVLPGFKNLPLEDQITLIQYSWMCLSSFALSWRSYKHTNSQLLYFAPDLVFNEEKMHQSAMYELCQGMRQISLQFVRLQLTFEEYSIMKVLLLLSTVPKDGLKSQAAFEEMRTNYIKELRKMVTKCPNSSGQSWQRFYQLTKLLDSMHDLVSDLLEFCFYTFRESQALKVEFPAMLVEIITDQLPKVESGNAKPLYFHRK
Briefly: Radioligand competition binding, [3H] aldosterone. Particulars: competition with [3H] aldosterone, 20 hours. The protocol: (§2) Binding assays were performed via competition with radioactive ligands across a range of dose of compounds 15a and 19d. For aldosterone binding, the aldosterone receptor was incubated for 20 hours with […] aldosterone. Similarly, the androgen receptor was co-incubated with 0.5 nM of [^3H] methyltrienolone, the estrogen receptor alpha was co-incubated with 0.5 nM [^3H] estradiol, the glucocorticoid receptor with 0.5 nM [^3H] dexamethasone, and the progesterone receptor with 0.5 nM [^3H] progesterone as parent ligands.
Background: In a radioligand displacement assay an active substance lowers the binding of a labelled ligand.

For a further test, the target named is T2, Progesterone Receptor B (Homo sapiens, UniProt P06401).
T2 sequence (P06401 1-933): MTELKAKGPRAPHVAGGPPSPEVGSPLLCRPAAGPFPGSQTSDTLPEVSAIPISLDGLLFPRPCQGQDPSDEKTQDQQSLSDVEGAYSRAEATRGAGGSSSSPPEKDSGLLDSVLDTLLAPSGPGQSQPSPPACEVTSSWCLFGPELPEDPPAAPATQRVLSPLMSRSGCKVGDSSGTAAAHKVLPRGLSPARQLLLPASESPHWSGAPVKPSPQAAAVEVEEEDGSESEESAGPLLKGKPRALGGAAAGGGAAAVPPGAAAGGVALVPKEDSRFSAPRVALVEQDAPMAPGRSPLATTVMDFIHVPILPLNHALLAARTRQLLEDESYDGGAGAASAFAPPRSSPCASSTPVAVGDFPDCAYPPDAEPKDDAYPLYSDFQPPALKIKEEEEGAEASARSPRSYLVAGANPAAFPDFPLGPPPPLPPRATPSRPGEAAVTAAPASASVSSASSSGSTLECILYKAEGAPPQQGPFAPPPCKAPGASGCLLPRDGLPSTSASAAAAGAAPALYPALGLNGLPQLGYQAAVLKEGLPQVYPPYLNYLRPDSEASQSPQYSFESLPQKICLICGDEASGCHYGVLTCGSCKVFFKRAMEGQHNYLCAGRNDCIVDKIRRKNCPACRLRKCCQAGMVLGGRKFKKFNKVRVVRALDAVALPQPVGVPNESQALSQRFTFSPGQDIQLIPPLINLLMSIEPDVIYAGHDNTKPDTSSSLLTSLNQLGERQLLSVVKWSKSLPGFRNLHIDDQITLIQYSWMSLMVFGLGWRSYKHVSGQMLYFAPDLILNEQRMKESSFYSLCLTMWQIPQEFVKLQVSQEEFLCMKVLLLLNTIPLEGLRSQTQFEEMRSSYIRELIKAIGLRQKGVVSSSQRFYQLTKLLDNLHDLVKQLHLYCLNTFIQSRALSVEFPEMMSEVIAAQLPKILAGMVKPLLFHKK
Briefly: Radioligand competition binding, [3H] progesterone. Conditions: competition with 0.5 nM [3H] progesterone. The protocol: as §2

SMILES strings stand for the structures.

Broadly, the IC50 is the concentration that gives 50% inhibition.

For `CC1(C)C(=O)N(c2ccc(C#N)c(C(F)(F)F)c2)C(=S)N1Cc1ccc(-c2c[nH]nn2)cc1` [Compound 15a, 4-(3-(4-(1H-1,2,3-triazol-4-yl)benzyl)-4,4-dimethyl-5-oxo-2-thioxoimidazolidin-1-yl)-2-(trifluoromethyl)benzonitrile], the IC50 with LNCAP AR is 17 µM; in the test with LAPC4, 13.3 µM; with 22Rv1 it was 18.3 µM; in the test on LNCaP ARin vivo, 18.5 µM; in the test with PC3, 59.8 µM; at Aldosterone Receptor it was greater than 10000 nM. At Progesterone Receptor B, this compound displayed an IC50 of 103 nM.
Consider `CC1(C)C(=O)N(c2ccc(C#N)c(C(F)(F)F)c2)C(=S)N1Cc1ccc(-c2c[nH]nn2)cc1F` [Compound 19d, 4-(3-(2-Fluoro-4-(1H-1,2,3-triazol-4-yl)benzyl)-4,4-dimethyl-5-oxo-2-thioxoimidazolidin-1-yl)-2-(trifluoromethyl)benzonitrile], for which the IC50 was 28.2 µM in the test on LNCAP AR; 16.3 µM in the test with LAPC4; 26.9 µM with 22Rv1; 28.2 µM in the test with LNCaP ARin vivo; 44.8 µM in the test on PC3; greater than 10000 nM at Aldosterone Receptor. On Progesterone Receptor B, this compound showed a 50% inhibitory concentration (IC50) of 76.3 nM.

Source of the values: patent US20230135524A1, “ARYL HYDANTOIN HETEROCYCLES AND METHODS OF USE” (The United States of America,as represented by the …, priority 2020, published 2023).
